Source: patent US20170311603A1 (priority 2014, published 2017)

Key:
[1] = tested on: N. parvum isolate Bourgogne S-116; assay: Mycelial growth of N. parvum on supplemented PDA medium (Example 1); type: cell-based, Neofusicoccum parvum; conditions: after 4 days, versus control (100%)
B. cinerea B0510 = assay: Mycelial growth of B. cinerea on supplemented PDA medium (Example 2); type: cell-based, Botrytis cinerea; conditions: after 8 days, versus control (100%)
[2] = tested on: N. parvum isolate Bourgogne S-116; parameters: species or system V. vinifera L. cv. Chardonnay; conditions: in vivo
[3] = tested on: Calli of V. vinifera cv. Chardonnay; assay: Phytotoxicity on grapevine cell clusters (calli) (Example 4); type: cell-based, V. vinifera L. cv. Chardonnay; conditions: for appearance and color of the calli: MPM1 medium supplemented with 5 or 10 mM
Procedure: Calli (or undifferentiated cell clusters) of V. vinifera cv. Chardonnay are obtained from anthers as described in Mauro et al. (1986) and in Bertsch et al. (2005).
All the calli are inoculated on fresh solid MPM1 medium (Perrin et al. 2004) every 3 weeks and incubated at 25±0.5° C. in the dark with a relative humidity of 70±10%.
This experiment was repeated three times. For each condition, 15 white-yellow calli, with a diameter of 10±2 mm, were used.
Calli growth in each condition tested is evaluated by weighing each day for 5 days. Duncan's statistical test (with p≦0.05) was applied to the means and standard deviations of the results thus obtained. In addition to weighing, we visually evaluate the appearance and color of the calli according to their culture medium for 2 months.

Row | Compound | inhibition of the growth of the fungus on the culture medium [1] | inhibition of the growth of the fungus on the culture medium (B. cinerea B0510) | reduction in the surface area of the necrotic lesions [2] | appearance and color of the calli [3] | inhibition of the development of necrosis on the inoculated internodes [2] | growth of the calli (weighing) ([3]; supplemented MPM1 medium, 5 days of culture)
1 | O=C([O-])CC(O)(CC(=O)[O-])C(=O)[O-].[Bi+3] [bismuth citrate] | do not significantly inhibit the growth of the fungus | do not significantly inhibit the growth of the fungus | – | – | – | –
2 | [Bi+3].[Bi+3].[O-2].[O-2].[O-2] [bismuth oxide] | do not significantly inhibit the growth of the fungus | do not significantly inhibit the growth of the fungus | 5% | no change | – | –
3 | [O-2].[O-2].[O-2].[Sb+3].[Sb+3] [antimony oxide] | do not significantly inhibit the growth of the fungus | do not significantly inhibit the growth of the fungus | – | – | – | –
4 | O=C(O)c1ccccc1O [salicylic acid] | – | – | – | light grayish coloring at the periphery of the calli but no necrosis | does not significantly inhibit the development of necrosis | –
5 | O=C1[O][Bi]([OH])[O]c2ccccc21 [bismuth subsalicylate] | – | – | – | light grayish coloring at the periphery of the calli but no necrosis | – | no impact in terms of growth, multiplication or necrotic appearance
